# Results published in patent publication US20230017786A1, “DEXTR[…] A DISEASE-MODIFYING TREATMENT FOR NEUROPSYCHIATRIC DISORDERS AND DISEASES” (priority 2020, published 2023).
# Values joined by “and” are separate entries in the source; they are usually repeats but may differ in a detail not shown here. Equal entries are not always repeated.
# Legend:
# [1] = target: human GluN1-GluN2C NMDA receptor (Homo sapiens, UniProt Q05586+Q14957); experiment: Manual patch clamp trapping assay, hGluN1/hGluN2C-CHO cells; settings: test item 10 μM
# Chain of human GluN1-GluN2C NMDA receptor (Q14957 20-1233, other chains not shown): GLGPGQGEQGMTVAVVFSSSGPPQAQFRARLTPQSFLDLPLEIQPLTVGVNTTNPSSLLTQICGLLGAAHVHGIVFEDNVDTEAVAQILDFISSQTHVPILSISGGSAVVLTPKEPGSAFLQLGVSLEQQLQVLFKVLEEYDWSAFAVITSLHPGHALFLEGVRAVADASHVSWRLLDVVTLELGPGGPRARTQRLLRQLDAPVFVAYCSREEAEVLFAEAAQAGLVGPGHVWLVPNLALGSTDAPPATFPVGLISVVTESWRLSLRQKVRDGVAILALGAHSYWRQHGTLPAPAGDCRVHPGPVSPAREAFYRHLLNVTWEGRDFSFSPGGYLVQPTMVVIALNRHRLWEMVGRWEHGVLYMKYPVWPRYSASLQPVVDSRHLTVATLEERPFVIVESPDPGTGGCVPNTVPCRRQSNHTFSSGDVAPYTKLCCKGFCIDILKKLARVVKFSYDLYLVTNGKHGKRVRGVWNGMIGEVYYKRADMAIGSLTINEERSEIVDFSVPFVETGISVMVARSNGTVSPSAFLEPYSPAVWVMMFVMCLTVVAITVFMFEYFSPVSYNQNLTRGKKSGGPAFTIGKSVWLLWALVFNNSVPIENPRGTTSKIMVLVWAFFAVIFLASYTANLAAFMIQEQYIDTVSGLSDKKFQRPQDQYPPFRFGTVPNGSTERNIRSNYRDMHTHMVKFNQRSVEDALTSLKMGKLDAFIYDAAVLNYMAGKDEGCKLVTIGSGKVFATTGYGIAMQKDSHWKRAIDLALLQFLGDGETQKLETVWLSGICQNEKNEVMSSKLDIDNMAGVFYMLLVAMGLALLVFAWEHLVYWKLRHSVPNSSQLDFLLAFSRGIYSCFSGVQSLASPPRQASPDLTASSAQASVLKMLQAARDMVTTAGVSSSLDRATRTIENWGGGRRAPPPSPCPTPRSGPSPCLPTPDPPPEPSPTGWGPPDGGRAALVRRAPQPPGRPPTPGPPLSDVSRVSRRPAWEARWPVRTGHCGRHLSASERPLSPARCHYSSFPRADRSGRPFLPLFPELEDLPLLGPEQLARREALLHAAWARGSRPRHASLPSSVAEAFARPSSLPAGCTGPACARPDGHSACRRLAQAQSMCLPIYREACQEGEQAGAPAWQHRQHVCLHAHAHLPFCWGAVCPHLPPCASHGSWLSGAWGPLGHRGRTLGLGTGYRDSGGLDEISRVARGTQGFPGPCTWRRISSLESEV
# [2] = target: T1, human NMDA receptor GluN1-GluN2A (Homo sapiens, UniProt Q05586+Q12879); experiment: FLIPR calcium assay, quinolinic acid, gentamicin, dextromethadone (Example 5 Part II), GluN1-GluN2A-CHO; type: cell-based; parameters: calcium response (mean±SEM): unit not given here; settings: 10 μM glycine; for calcium response (mean±SEM): GluN2A, n=42
# T1 construct: expressed in transfected cells; host or cells: CHO
# T1 sequence (Q12879 23-1464, other chains not shown): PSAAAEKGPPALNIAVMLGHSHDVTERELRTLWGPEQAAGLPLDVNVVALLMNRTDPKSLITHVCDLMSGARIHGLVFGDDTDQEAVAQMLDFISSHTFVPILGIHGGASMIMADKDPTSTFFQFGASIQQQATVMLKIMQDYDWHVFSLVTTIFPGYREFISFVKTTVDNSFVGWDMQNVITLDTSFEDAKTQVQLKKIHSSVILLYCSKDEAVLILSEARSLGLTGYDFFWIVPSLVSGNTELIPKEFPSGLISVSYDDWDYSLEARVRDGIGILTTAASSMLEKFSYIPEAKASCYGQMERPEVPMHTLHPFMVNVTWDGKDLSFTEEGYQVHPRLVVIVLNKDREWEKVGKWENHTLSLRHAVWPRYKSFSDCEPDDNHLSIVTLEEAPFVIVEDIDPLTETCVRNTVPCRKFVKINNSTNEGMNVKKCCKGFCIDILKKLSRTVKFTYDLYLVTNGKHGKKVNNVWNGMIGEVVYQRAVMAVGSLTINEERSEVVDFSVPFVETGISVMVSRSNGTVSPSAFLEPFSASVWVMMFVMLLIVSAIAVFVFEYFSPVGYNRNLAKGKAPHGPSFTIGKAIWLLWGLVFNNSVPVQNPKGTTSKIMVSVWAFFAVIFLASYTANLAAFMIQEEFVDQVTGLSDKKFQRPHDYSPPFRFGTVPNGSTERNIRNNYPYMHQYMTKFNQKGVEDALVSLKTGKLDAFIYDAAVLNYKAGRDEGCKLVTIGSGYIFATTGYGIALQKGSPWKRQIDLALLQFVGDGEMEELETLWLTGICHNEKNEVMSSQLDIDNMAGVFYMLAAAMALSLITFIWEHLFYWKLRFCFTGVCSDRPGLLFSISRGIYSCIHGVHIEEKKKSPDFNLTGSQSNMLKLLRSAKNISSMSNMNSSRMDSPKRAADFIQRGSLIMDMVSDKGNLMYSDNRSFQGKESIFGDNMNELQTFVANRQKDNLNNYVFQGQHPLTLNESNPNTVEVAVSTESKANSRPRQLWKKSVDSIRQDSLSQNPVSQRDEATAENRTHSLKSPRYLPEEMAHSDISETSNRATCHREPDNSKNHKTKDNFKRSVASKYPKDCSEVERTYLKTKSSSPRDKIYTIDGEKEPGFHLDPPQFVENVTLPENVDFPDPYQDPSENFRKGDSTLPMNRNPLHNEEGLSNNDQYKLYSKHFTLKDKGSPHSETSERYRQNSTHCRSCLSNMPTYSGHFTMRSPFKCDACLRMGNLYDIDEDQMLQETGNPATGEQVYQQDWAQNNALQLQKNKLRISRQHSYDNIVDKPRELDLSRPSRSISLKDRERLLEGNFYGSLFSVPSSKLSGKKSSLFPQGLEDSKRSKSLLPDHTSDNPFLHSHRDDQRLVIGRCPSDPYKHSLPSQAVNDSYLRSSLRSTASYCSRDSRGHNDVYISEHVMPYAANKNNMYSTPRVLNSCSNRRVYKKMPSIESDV
# How it was run: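 CHO lines expressing diheteromeric human GluN1/GluN2A–D, loaded 1 h with Fluo-4, tested by FLIPR for intracellular calcium with 10 μM glycine present. Quinolinic acid, gentamicin and test items were run as concentration-response curves, alone or combined. EC50 obtained from a four-parameter Hill fit.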
# GluN1/GluN2D receptor = target: T2, GluN1/GluN2D receptor (Homo sapiens, UniProt O15399+Q05586); experiment: Automated patch clamp (QPatch HTX) in presence of 1 mM extracellular magnesium; type: cell-based; settings: 10 μM dextromethadone, 1 mM Mg2+
# T2 construct: expressed in transfected cells; host or cells: CHO
# T2 sequence (O15399 28-1336, other chains not shown): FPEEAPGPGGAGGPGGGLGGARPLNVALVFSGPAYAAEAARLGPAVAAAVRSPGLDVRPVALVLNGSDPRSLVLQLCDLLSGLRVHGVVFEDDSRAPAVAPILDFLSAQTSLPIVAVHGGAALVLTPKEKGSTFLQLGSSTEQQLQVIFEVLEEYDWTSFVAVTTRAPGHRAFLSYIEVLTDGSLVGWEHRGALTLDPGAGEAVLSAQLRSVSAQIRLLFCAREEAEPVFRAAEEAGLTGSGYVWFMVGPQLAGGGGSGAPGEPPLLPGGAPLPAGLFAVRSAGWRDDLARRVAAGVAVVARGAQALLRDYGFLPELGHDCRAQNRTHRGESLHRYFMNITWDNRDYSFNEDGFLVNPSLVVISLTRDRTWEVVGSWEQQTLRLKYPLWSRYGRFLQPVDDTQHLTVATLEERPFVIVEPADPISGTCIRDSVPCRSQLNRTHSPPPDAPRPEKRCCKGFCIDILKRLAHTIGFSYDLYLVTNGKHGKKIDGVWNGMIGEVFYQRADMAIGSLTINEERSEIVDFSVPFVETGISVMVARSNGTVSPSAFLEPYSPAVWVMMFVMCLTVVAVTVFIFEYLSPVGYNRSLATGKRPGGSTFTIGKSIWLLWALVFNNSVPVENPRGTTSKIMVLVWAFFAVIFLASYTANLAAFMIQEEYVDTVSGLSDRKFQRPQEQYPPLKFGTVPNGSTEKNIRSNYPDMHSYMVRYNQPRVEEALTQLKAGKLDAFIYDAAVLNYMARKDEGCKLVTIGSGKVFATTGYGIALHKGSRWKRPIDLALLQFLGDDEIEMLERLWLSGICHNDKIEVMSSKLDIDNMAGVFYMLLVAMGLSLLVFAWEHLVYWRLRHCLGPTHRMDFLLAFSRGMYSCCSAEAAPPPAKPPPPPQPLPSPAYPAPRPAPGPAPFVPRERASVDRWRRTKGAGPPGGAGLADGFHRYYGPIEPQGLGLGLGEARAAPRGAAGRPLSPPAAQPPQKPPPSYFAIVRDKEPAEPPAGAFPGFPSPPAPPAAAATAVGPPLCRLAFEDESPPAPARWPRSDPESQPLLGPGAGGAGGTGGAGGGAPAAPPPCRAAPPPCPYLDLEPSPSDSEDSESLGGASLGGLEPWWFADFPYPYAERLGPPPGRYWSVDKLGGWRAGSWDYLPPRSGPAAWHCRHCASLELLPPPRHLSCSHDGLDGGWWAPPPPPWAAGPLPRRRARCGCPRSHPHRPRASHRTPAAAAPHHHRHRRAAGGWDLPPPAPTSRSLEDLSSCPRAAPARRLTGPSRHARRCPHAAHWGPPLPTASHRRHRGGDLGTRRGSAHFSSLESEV
# Method: Automated patch clamp experiments were performed in QPatch HTX (Sophion Bioscience A/S, Ballerup, Denmark) using CHO cells stably expressing recombinant diheteromeric human NMDAR. Cells were clamped at −80 mV holding potential in presence of 1 mM extracellular magnesium. Voltage protocol included a depolarizing 2 s step pulse to +60 mV, to check quality of the seal and cell NMDAR expression level, followed by a 2 s ramp back to holding potential.
# [3] = target: T3, human NMDA receptor GluN1-GluN2D (Homo sapiens, UniProt O15399+Q05586); experiment: FLIPR calcium assay, test item effect on L-glutamate CRC, GluN1-GluN2D-CHO; type: cell-based
# T3 construct: expressed in transfected cells; host or cells: CHO
# T3 sequence (O15399 28-1336, other chains not shown): as above
# [4] = target: T4, human NMDA receptor GluN1-GluN2C (Homo sapiens, UniProt Q05586+Q14957); experiment: FLIPR calcium assay, test item effect on L-glutamate CRC, GluN1-GluN2C-CHO; type: cell-based
# T4 construct: expressed in transfected cells; host or cells: CHO
# T4 sequence (Q14957 20-1233, other chains not shown): as the sequence (Q14957 20-1233, other chains not shown) above
# [5] = target: T1, human NMDA receptor GluN1-GluN2A; experiment: FLIPR calcium assay, test item effect on L-glutamate CRC, GluN1-GluN2A-CHO; type: cell-based
# [6] = operational analysis for allosteric modulators
smiles,measurement,setting,value
"CCC(=O)C(C[C@H](C)N(C)C)(c1ccccc1)c1ccccc1 [Dextromethadone, dextromethadone]","Block trapped (BT), trapping",[1],85.9% and 85.9%±1.9%
same,Block (B) of 10/10 μM L-glutamate/glycine-evoked currents,[1]; listed as dextromethadone,83.8%±1.2% and 83.8%
same,"Block trapped (BT), trapping",[1]; listed as dextromethadone,85.9% and 85.9%±1.9%
same,Residual block (BR),[1]; listed as dextromethadone,71.8%±1.1% and 71.8%
same,calcium response (mean±SEM),[2]; 0.04 μM L-Glu + 10 μM DXT,0.5 ± 0.2
same,calcium response (mean±SEM),[2]; 0.04 μM L-Glu + 100 μM QA + 10 μM DXT,3.4 ± 0.2
same,calcium response (mean±SEM),[2]; 0.04 μM L-Glu + 1000 μM QA + 10 μM DXT,32 ± 0.7
same,calcium response (mean±SEM),[2]; 0.2 μM L-Glu + 10 μM DXT,14 ± 0.4
same,calcium response (mean±SEM),[2]; 0.2 μM L-Glu + 100 μM QA + 10 μM DXT,15 ± 0.5
same,calcium response (mean±SEM),[2]; 0.2 μM L-Glu + 1000 μM QA + 10 μM DXT,35 ± 1.0
same,"% effect on calcium entry, 100 QA + 10 DXT",[2]; 100 μM QA + 10 μM DXT,−0.2 ± 0.2%
same,calcium response (mean±SEM),[2]; 1000 μM QA + 10 μM DXT,34 ± 0.6
same,"% effect on calcium entry, 1000 QA + 10 DXT",[2]; 1000 μM QA + 10 μM DXT,34 ± 0.6%
same,calcium response (mean±SEM),[2]; 1000 μM QA + 10 μg/ml GENT + 10 μM DXT,34 ± 0.6
same,calcium response (mean±SEM),[2]; Table 41: 0.04 μM L-Glu + 10 μM DXT,0.5 ± 0.2
same,calcium response (mean±SEM),[2]; Table 43: 0.2 μM L-Glu + 10 μM DXT,14 ± 0.4
same,"residual current, % of pre-application level","GluN1/GluN2D receptor; 1 μM L-glutamate, −80 mV, control cells 102.5±[…]",62.5±4.1%
same,10 μM or 1 μM L-glutamate elicited current,GluN1/GluN2D receptor; −30 mV to −80 mV,significantly reduced
same,"α, estimated cooperativity term",[3]; [6],0.22
same,L-glutamate CRC HillSlope,[3]; with test item 49 nM,1.3
same,L-glutamate CRC LogEC50,[3]; with test item 49 nM,−7.5
same,L-glutamate CRC HillSlope,[3]; with test item 195 nM,1.3
same,L-glutamate CRC LogEC50,[3]; with test item 195 nM,−7.5
same,L-glutamate CRC HillSlope,[3]; with test item 781 nM,1.7
same,L-glutamate CRC LogEC50,[3]; with test item 781 nM,−7.5
same,L-glutamate CRC HillSlope,[3]; with test item 3.1 μM,1.5
same,L-glutamate CRC LogEC50,[3]; with test item 3.1 μM,−7.4
same,L-glutamate CRC HillSlope,[3]; with test item 12.5 μM,1.1
same,L-glutamate CRC LogEC50,[3]; with test item 12.5 μM,−7.1
same,L-glutamate CRC LogEC50,[3]; with test item 50 μM,−6.9
same,"α, estimated cooperativity term",[4]; [6],0.17
same,L-glutamate CRC HillSlope,[4]; with test item 49 nM,1.3
same,L-glutamate CRC LogEC50,[4]; with test item 49 nM,−6.8
same,L-glutamate CRC HillSlope,[4]; with test item 195 nM,1.4
same,L-glutamate CRC LogEC50,[4]; with test item 195 nM,−6.8
same,L-glutamate CRC HillSlope,[4]; with test item 781 nM,2.2
same,L-glutamate CRC LogEC50,[4]; with test item 781 nM,−6.8
same,L-glutamate CRC HillSlope,[4]; with test item 3.1 μM,1.4
same,L-glutamate CRC LogEC50,[4]; with test item 3.1 μM,−6.8
same,L-glutamate CRC HillSlope,[4]; with test item 12.5 μM,1.5
same,L-glutamate CRC LogEC50,[4]; with test item 12.5 μM,−6.7
same,L-glutamate CRC HillSlope,[4]; with test item 50 μM,1.7
same,L-glutamate CRC LogEC50,[4]; with test item 50 μM,−6.6
same,"α, estimated cooperativity term",[5]; [6],0.22
same,L-glutamate CRC HillSlope,[5]; with test item 49 nM,1.0
same,L-glutamate CRC LogEC50,[5]; with test item 49 nM,−6.7
same,L-glutamate CRC HillSlope,[5]; with test item 195 nM,1.1
same,L-glutamate CRC LogEC50,[5]; with test item 195 nM,−6.6
same,L-glutamate CRC HillSlope,[5]; with test item 781 nM,1.1
same,L-glutamate CRC LogEC50,[5]; with test item 781 nM,−6.6
same,L-glutamate CRC HillSlope,[5]; with test item 3.1 μM,1.0
same,L-glutamate CRC LogEC50,[5]; with test item 3.1 μM,−6.6
same,L-glutamate CRC HillSlope,[5]; with test item 12.5 μM,1.0
same,L-glutamate CRC LogEC50,[5]; with test item 12.5 μM,−6.4
same,L-glutamate CRC HillSlope,[5]; with test item 50 μM,1.4
same,L-glutamate CRC LogEC50,[5]; with test item 50 μM,−6.4
